Laboratory results published in patent publication US8182527B2, “Heparin barrier coating for controlled drug release” (Cordis Corporation, priority 2001, dated 2012).

Tests used:
[1] = system: human coronary artery smooth muscle cells; assay: Anti-proliferative activity in non-synchronized cultured human coronary artery smooth muscle cells stimulated with two percent fetal bovine serum; assay type: cell-based; settings: for effect on the anti-proliferative rapamycin dose response curve: added to cells treated with rapamycin
From the text: The multiple curves represent various concentrations of mycophenolic acid ranging from zero to one thousand nanomolar concentrations. […] This potentiation observed in cultured coronary artery smooth muscle cells preferably translates to an enhancement in anti-restenotic efficacy following vascular injury and a reduction in the required amount of either agent to achieve the desired anti-restenotic effect.
FIG. 58 illustrates, in graphical format, the anti-proliferative activity of cladribine in non-synchronized cultured human coronary artery smooth muscle cells stimulated with two percent fetal bovine serum.
The multiple curves represent various concentrations of cladribine ranging from zero to nine hundred nanomolar concentrations. […] As illustrated, the percent inhibition increases substantially as the dose of cladribine increases.

[2] = system: human coronary artery smooth muscle cell proliferation; assay: In vitro cell culture study of coronary artery smooth muscle cell proliferation (trichostatin A); assay type: cell-based
From the text: FIG. 51 is a graph of the inhibition of coronary artery smooth muscle cells by trichostatin A in a cell culture study.

[3] = Drug concentration in liquid formulations by liquid chromatography / HPLC; assay type: physicochemical
Procedure: Table 8, shown below, summarizes the concentrations of the excipient, the co-solvents and the drug for four different liquid formulations in accordance with exemplary embodiments of the present invention.
As set forth above, a liquid formulation comprising 4 mg/ml of sirolimus may be achieved utilizing PEG 200 as the excipient and ethanol and water as the co-solvents. […] The high concentration of sirolimus is necessary to maintain an effective and high local concentration of sirolimus after delivery to the site. The liquid formulations are flowable at room temperature and are compatible with a number of delivery devices. Specifically, each of these formulations were successfully injected through an infusion catheter designated by the brand name CRESCENDO™ from Cordis Corporation, Miami, Fla., as described in more detail subsequently, and the EndoBionics Micro Syringe™ Infusion Catheter available from EndoBionics, Inc., San Leandros, Calif., as described in more detail above, in porcine studies.
In another exemplary embodiment, the liquid formulation of sirolimus comprises water and ethanol as co-solvents and Vitamin E TPGS as the excipient. The liquid formulation was created utilizing the following process. Two hundred milligrams of sirolimus and two grams of ethanol were added to a pre-weighed twenty milliliter scintillation vial. […]

[4] = system: human coronary artery smooth muscle cells; assay: Anti-proliferative activity in synchronized cultured human coronary artery smooth muscle cells stimulated with two percent fetal bovine serum; assay type: cell-based; settings: for effect on the anti-proliferative rapamycin dose response curve: added to cells treated with rapamycin
From the text: (§1) The multiple curves represent various concentrations of topotecan ranging from zero to three hundred nanomolar concentrations.
(§2) The multiple curves represent various concentrations of etoposide ranging from zero to eight hundred nanomolar concentrations.
The multiple curves represent various concentrations of Panzem® ranging from zero to 100 micromolar concentrations.

[5] = system: human coronary artery smooth muscle cell survival; assay: MTS cytotoxicity assay; assay type: cell-based; settings: 6.6 to 30,000.00 nanomolar tested
From the text: Typically, a control is utilized to determine baseline toxicity.

Cell viability assay = assay type: cell-based
From the text: as §1, §2

[6] = assay type: physicochemical; settings: 0.02 weight percent per total basecoat solids
From the text: Referring to FIG. 75, there is illustrated in graphical format, the results of the same drug screening as described above with the solution applied to a cobalt-chromium, 18 mm stent. In this test, two sets of solution samples were utilized, one with sirolimus and polymer solution containing the antioxidant and one with sirolimus and polymer solution containing no antioxidant. The antioxidant utilized was 0.02 weight percent BHT per total basecoat solids. The test was utilized to determine the percent drug content change over a time period of 0 to 12 weeks under two conditions; namely, 40° C. with 75 percent relative humidity, and ambient conditions (25° C.).

COc1c(C)c2c(c(O)c1C/C=C(\C)CCC(=O)O)C(=O)OC2 [mycophenolic acid]
effect on the anti-proliferative rapamycin dose response curve [1]: potentiates the anti-proliferative activity of rapamycin

CC(/C=C/C(=O)NO)=C\[C@@H](C)C(=O)c1ccc(N(C)C)cc1 [trichostatin A]
inhibition of human coronary artery smooth muscle cell proliferation [2]: completely inhibit
IC50 ([2]; human coronary artery smooth muscle cells, read-out: anti-proliferative IC50): ~6 nM

CO[C@H]1C[C@@H]2CC[C@@H](C)[C@@](O)(O2)C(=O)C(=O)N2CCCC[C@H]2C(=O)O[C@H]([C@H](C)C[C@@H]2CC[C@@H](O)[C@H](OC)C2)CC(=O)[C@H](C)/C=C(\C)[C@@H](O)[C@@H](OC)C(=O)[C@H](C)C[C@H](C)/C=C/C=C/C=C/1C [rapamycin]
concentration relative to the solubility of sirolimus in water ([3]; 4 mg/ml formulation with PEG 200, ethanol and water): about four hundred to about one thousand times higher

COc1cc2c(cc1O)CC[C@@H]1[C@@H]2CC[C@]2(C)[C@@H](O)CC[C@@H]12 [Panzem®, 2-methoxyestradiol]
effect on the anti-proliferative rapamycin dose response curve [4]: potentiation of rapamycin by Panzem®
anti-proliferative activity ([4]; two percent fetal bovine serum, alone): extremely effective inhibitor of human coronary artery smooth muscle cell proliferation in vitro
concentrations that do not reduce human coronary artery smooth muscle cell survival [5]: up to 30,000.00 nanomolar

COc1cc([C@@H]2c3cc4c(cc3[C@@H](O[C@@H]3O[C@@H]5CO[C@@H](C)O[C@H]5[C@H](O)[C@H]3O)[C@H]3COC(=O)[C@H]23)OCO4)cc(OC)c1O [etoposide]
effect on the anti-proliferative rapamycin dose response curve [4]: potentiate the anti-proliferative activity of rapamycin
cytotoxicity in cell viability assay (Cell viability assay; concentrations up to ten micromolar): non-cytotoxic

Nc1nc(Cl)nc2c1ncn2[C@H]1C[C@H](O)[C@@H](CO)O1 [Cladribine, 2-chlorodeoxyadenosine]
effect on the anti-proliferative rapamycin dose response curve [1]: potentiate the anti-proliferative activity of rapamycin
inhibition of human coronary artery smooth muscle cell proliferation ([1]; two percent fetal bovine serum): completely inhibits

Cc1cc(C(C)(C)C)c(O)c(C(C)(C)C)c1 [BHT, Butylated Hydroxytoluene]
effect on drug degradation on coated stent [6]: lessens drug degradation at both 8 weeks and 12 weeks under ambient conditions

CC[C@@]1(O)C(=O)OCc2c1cc1n(c2=O)Cc2cc3c(CN(C)C)c(O)ccc3nc2-1 [topotecan]
effect on the anti-proliferative rapamycin dose response curve [4]: potentiate the anti-proliferative activity of rapamycin
cytotoxicity in cell viability assay (Cell viability assay; concentrations up to one micromolar): non-cytotoxic

CO[C@H]1C[C@@H]2CC[C@@H](C)[C@@](O)(O2)C(=O)C(=O)N2CCCC[C@H]2C(=O)O[C@H]([C@H](C)C[C@@H]2CC[C@@H](OC(=O)C(C)(CO)CO)[C@H](OC)C2)CC(=O)[C@H](C)/C=C(\C)[C@@H](O)[C@@H](OC)C(=O)[C@H](C)C[C@H](C)/C=C/C=C/C=C/1C [CCI-779]
concentration in the final solution (HPLC assay) ([3]; ethanol (less than two percent), Vitamin E TPGS and water): 15000 µg/mL
